Here are results for 23 compounds from article PMC8812735, “Discovery of triterpenoids as potent dual inhibitors of pancreatic lipase and human carboxylesterase 1” (Journal of Enzyme Inhibition and Medicinal Chemistry, 2022).

Each structure is given as a SMILES string.

The first test concerns the target T1, Pancreatic lipase (PL) (Sus scrofa, UniProt P00591).
T1 construct: purchased Sigma Aldrich type II, Lot.SLBN9099V
T1 sequence (P00591 1-450): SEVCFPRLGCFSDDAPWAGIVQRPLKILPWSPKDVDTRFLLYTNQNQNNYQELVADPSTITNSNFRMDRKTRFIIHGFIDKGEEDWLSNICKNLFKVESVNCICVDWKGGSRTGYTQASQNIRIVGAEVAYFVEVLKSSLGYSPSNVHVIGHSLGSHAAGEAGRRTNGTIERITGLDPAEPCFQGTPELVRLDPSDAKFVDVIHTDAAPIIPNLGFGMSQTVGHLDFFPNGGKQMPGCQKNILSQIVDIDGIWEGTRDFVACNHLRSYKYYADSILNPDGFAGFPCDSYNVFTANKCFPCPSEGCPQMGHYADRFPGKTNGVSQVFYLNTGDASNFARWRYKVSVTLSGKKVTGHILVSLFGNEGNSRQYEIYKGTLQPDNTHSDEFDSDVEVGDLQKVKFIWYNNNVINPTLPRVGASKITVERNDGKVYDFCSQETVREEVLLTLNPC
The experiment in a line: Inhibition of PL-mediated 4-MUO hydrolysis. Type of test: biochemical. Conditions: 4-MUO substrate, mean ± SD (n = 3). As for the experimental part:
In addition, the background fluorescence in the absence of an enzyme source (PL) (add the same amount of citrate-Na2HPO4 buffer) was measured. […] Then start the reaction by adding 2 µL of 4-MUO probe (3 µM, final concentration). The fluorescence signal of 4-MU (hydrolytic metabolite) was detected by multi-mode microplate reader (SpectraMax M4, Molecular Devices, Urstein, Austria) with continuous oscillation for 20 min and recorded and analysed at 60 s intervals. The excitation wavelength and emission wavelength of 4-MU were set at 340 nm and 460 nm, respectively, and the gain value was 500.
(§1) Subsequently, various concentrations of substrates (selected according to Km) and different concentrations of inhibitors were used to determine the corresponding reaction rate, and the second slope graph of the Lineweaver–Burk diagram was used as a function of the inhibitor to calculate the corresponding inhibition constant (Ki) value. All kinetic data were fitted by the following kinetic equations (a–c), for competitive (a), non-competitive (b) and mixed inhibition (c): (a) V=(VmaxS)/[Km(1+I/Ki)+S] (b) V=(VmaxS)/[(Km+S)×(1+I/Ki)] (c) V=(VmaxS)/[(Km+S)×(1+I/αKi)] where V is the hydrolytic velocity of the reaction, Vmax is the maximum velocity. S and I are substrate (4-MUO, NLMe) and inhibitor (compound 39/41) concentrations, respectively. Ki is the inhibition constant of the tested inhibitor against the target PL and hCES1A; Km is the Michaelis constant (the substrate concentration at half of the Vmax).
All measurements were made in triplicate and the data obtained in the experiment were shown as mean ± SD.
Broadly, the IC50 is the concentration that inhibits the measured activity by half. As for `CC1(C)CC[C@]2(C(=O)O)CC[C@]3(C)C(=CC[C@@H]4[C@@]5(C)CC[C@H](O)C(C)(C)[C@@H]5CC[C@]43C)[C@@H]2C1` [Compound 1, oleanolic acid], the IC50 was determined as 8.63 ± 0.84 µM.
In the case of `CC1(C)CC[C@]2(C(=O)O)CC[C@]3(C)C(=CC[C@@H]4[C@@]5(C)C[C@@H](O)[C@H](O)C(C)(C)[C@@H]5CC[C@]43C)[C@@H]2C1` [Compound 2, maslinic acid], half-maximal inhibition (IC50) required 16 ± 4.59 µM.
`CC1(C)CC[C@]2(C(=O)O)[C@H](O)C[C@]3(C)C(=CC[C@@H]4[C@@]5(C)C[C@@H](O)[C@H](O)[C@@](C)(CO)[C@@H]5CC[C@]43C)[C@@H]2C1` [Compound 4, polygalacic acid] came in with an IC50 greater than 100 µM.
As for `C[C@H]1[C@H](C)CC[C@]2(C(=O)O)CC[C@]3(C)C(=CC[C@@H]4[C@@]5(C)CC[C@H](O)C(C)(C)[C@@H]5CC[C@]43C)[C@H]12` [Compound 5, ursolic acid], the IC50 was 6.16 ± 0.97 µM.
The same measure, in the same setting: the result for `C[C@H]1[C@H](C)CC[C@]2(C(=O)O)CC[C@]3(C)C(=CC[C@@H]4[C@@]5(C)C[C@@H](O)[C@H](O)C(C)(C)[C@@H]5CC[C@]43C)[C@H]12` [Compound 6, corosolic acid] reads 12.8 ± 1.44 µM; that for `CC1(C)[C@@H](O)CC[C@]2(C)[C@H]3C(=O)C=C4[C@@H]5C[C@@](C)(C(=O)O)CC[C@]5(C)CC[C@@]4(C)[C@]3(C)CC[C@@H]12` [Compound 9, glycyrrhetic acid], 28.3 ± 9.47 µM.
Regarding `CC1(C)[C@@H](O[C@H]2O[C@H](C(=O)O)[C@@H](O)[C@H](O)[C@H]2O[C@@H]2O[C@H](C(=O)O)[C@@H](O)[C@H](O)[C@H]2O)CC[C@]2(C)[C@H]3C(=O)C=C4[C@@H]5C[C@@](C)(C(=O)O)CC[C@]5(C)CC[C@@]4(C)[C@]3(C)CC[C@@H]12` [Compound 10, glycyrrhizic acid], the IC50 is greater than 100 µM.
Regarding `C=C(C)[C@@H]1CC[C@]2(C=O)CC[C@]3(C)[C@H](CC[C@@H]4[C@@]5(C)CC[C@H](O)C(C)(C)[C@@H]5CC[C@]43C)[C@@H]12` [Compound 13], the IC50 was greater than 100 µM.
Still for that read-out and setting: the result for `C=C(C)[C@@H]1CC[C@]2(C(=O)O)CC[C@]3(C)[C@H](CC[C@@H]4[C@@]5(C)CC[C@H](O)C(C)(C)[C@@H]5CC[C@]43C)[C@@H]12` [Compound 14] reads greater than 100 µM; that for `C=C(C)[C@@H]1CC[C@]2(C)CC[C@]3(C)[C@H](CC[C@@H]4[C@@]5(C)CC[C@H](O)C(C)(C)[C@@H]5CC[C@]43C)[C@@H]12` [Compound 15], greater than 100 µM.
The compound `C=C(CC[C@@H](C(=O)O)[C@H]1[C@H](O)C[C@@]2(C)C3=C(CC[C@]12C)[C@@]1(C)CC[C@H](OC(C)=O)C(C)(C)[C@@H]1CC3)C(C)C` [Compound 16, pachymic acid] had an IC50 greater than 100 µM.
Same read-out and setting: the result for `CC(CC(=O)C[C@@H](C)[C@H]1CC(=O)[C@@]2(C)C3=C(C(=O)C[C@]12C)[C@@]1(C)CC[C@H](O)C(C)(C)[C@@H]1C[C@@H]3O)C(=O)O` (stereo partly drawn) [Compound 17, ganoderic acid B] reads greater than 100 µM.
The compound `CC(C)=CCC[C@](C)(O[C@@H]1O[C@H](CO)[C@@H](O)[C@H](O)[C@H]1O)[C@H]1CC[C@]2(C)[C@@H]1[C@H](O)C[C@@H]1[C@@]3(C)CC[C@H](O)C(C)(C)[C@@H]3[C@@H](O)C[C@]12C` [Compound 18] registered an IC50 greater than 100 µM.
Take `CC(C)=CCC=C(C)C1CCC2(C)C1C(O)CC1C3(C)CCC(O)C(C)(C)C3C(OC3OC(CO)C(O)C(O)C3OC3OC(C)C(O)C(O)C3O)CC12C` (stereo not drawn) [Compound 19]: the IC50 came to 74.5 ± 28.4 µM.
Turning to `CC(C)=CCCC(C)(OC1OC(CO)C(O)C(O)C1O)C1CCC2(C)C1C(O)CC1C3(C)CCC(O)C(C)(C)C3C(OC3OC(CO)C(O)C(O)C3OC3OC(CO)C(O)C(O)C3O)CC12C` (stereo not drawn) [Compound 20], inhibition was half-maximal at 29.7 ± 5.02 µM (IC50).
`CC(C)=CCC[C@](C)(O[C@@H]1O[C@H](CO)[C@@H](O)[C@H](O)[C@H]1O)[C@H]1CC[C@]2(C)[C@@H]1[C@H](O)C[C@@H]1[C@@]3(C)CC[C@H](O)C(C)(C)[C@@H]3[C@@H](O[C@@H]3O[C@H](CO)[C@@H](O)[C@H](O)[C@H]3O[C@@H]3O[C@@H](C)[C@H](O)[C@@H](O)[C@H]3O)C[C@]12C` [Compound 21] returned an IC50 greater than 100 µM.
`CC(C)=CCC[C@](C)(O[C@@H]1O[C@H](CO)[C@@H](O)[C@H](O)[C@H]1O)[C@H]1CC[C@]2(C)[C@@H]1[C@H](O)C[C@@H]1[C@@]3(C)CC[C@H](O)C(C)(C)[C@@H]3[C@@H](O[C@@H]3O[C@H](CO)[C@@H](O)[C@H](O)[C@H]3O)C[C@]12C` [Compound 22]: the IC50 was greater than 100 µM.
`CC(C)=CCC[C@](C)(O)[C@H]1CC[C@]2(C)[C@@H]1[C@H](O)C[C@@H]1[C@@]3(C)CC[C@H](O)C(C)(C)[C@@H]3[C@@H](O[C@@H]3O[C@H](CO)[C@@H](O)[C@H](O)[C@H]3O[C@@H]3O[C@@H](C)[C@H](O)[C@@H](O)[C@H]3O)C[C@]12C` [Compound 23] returned an IC50 greater than 100 µM.
As to `CC(C)=CCC[C@](C)(O)[C@H]1CC[C@]2(C)[C@@H]1[C@H](O)C[C@@H]1[C@@]3(C)CC[C@H](O)C(C)(C)[C@@H]3[C@@H](O[C@@H]3O[C@H](CO)[C@@H](O)[C@H](O)[C@H]3O)C[C@]12C` [Compound 24], the IC50 is greater than 100 µM.
In the case of `CC(C)=CC/C=C(\C)[C@H]1CC[C@]2(C)[C@@H]1[C@H](O)C[C@@H]1[C@@]3(C)CC[C@H](O)C(C)(C)[C@@H]3[C@@H](O[C@@H]3O[C@H](CO)[C@@H](O)[C@H](O)[C@H]3O)C[C@]12C` [Compound 25], the IC50 was greater than 100 µM.
The compound `CC1(C)CC[C@]2(C(=O)O[C@@H]3O[C@H](CO)[C@@H](O)[C@H](O)[C@H]3O)CC[C@]3(C)C(=CC[C@@H]4[C@@]5(C)CC[C@H](O[C@@H]6O[C@H](C(=O)O)[C@@H](O)[C@H](O)[C@H]6O[C@@H]6O[C@H](CO)[C@@H](O)[C@H](O)[C@H]6O)C(C)(C)[C@@H]5CC[C@]43C)[C@@H]2C1` [Compound 26] displayed an IC50 greater than 100 µM.
The compound `CC(C)=CCC[C@](C)(O[C@@H]1O[C@H](CO)[C@@H](O)[C@H](O)[C@H]1O)[C@H]1CC[C@]2(C)[C@@H]1[C@H](O)C[C@@H]1[C@@]3(C)CC[C@H](O)C(C)(C)[C@@H]3[C@@H](O[C@@H]3O[C@H](CO)[C@@H](O)[C@H](O)[C@H]3O[C@@H]3OC[C@@H](O)[C@H](O)[C@H]3O)C[C@]12C` [Compound 27] had an IC50 greater than 100 µM.

For a further test, the target named is T2, hCES1A (Homo sapiens, UniProt P23141).
T2 construct: tissue Bioreclamation IVT lot No. X008067; host or cells: pooled human liver microsomes from 50 donors
T2 sequence (P23141 18-567): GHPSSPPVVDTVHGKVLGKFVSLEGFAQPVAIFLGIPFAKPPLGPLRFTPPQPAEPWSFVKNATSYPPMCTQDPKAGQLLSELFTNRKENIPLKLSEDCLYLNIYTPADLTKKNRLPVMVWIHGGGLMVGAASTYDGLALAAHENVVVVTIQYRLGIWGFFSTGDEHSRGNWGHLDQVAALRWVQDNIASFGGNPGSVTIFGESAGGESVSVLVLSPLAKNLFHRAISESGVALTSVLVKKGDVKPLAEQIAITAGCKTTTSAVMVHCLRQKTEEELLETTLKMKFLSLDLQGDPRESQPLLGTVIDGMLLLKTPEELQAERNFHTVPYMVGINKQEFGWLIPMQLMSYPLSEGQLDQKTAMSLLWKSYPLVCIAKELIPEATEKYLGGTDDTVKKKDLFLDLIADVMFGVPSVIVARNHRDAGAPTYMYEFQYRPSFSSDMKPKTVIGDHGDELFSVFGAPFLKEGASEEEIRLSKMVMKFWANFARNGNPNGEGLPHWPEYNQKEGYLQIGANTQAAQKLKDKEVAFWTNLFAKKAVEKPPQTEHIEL
The experiment in a line: Inhibition of hCES1A-mediated NLMe hydrolysis in human liver microsomes. Type of test: biochemical.
Settings: not given
The procedure: N-Alkylated D-luciferin methyl ester (NLMe), a Specific probe for hCES1A[45], was used for assessing the inhibitory effects for triterpenoids, and BNPP was used as a positive inhibitor of hCES1A. […] Then NLMe (2 µL, 0.15 mM) was added to start the reaction. After shaking the reaction in 37 °C incubator for 10 min, 50 µL of reaction solution was removed and mixed with LDR (50 µL) to terminate the reaction. A multi-mode microplate reader was used to detect the luminescence signal of NL (the hydrolysed metabolite of NLMe). The luminescence product of NL was measured at 580 nm (gain: 140). The final volume ratio of DMSO was less than 1% (V/V).
as §1
All measurements were made in triplicate and the data obtained in the experiment were shown as mean ± SD. The IC50 and Ki values of the compounds with strong inhibitory effect were evaluated by nonlinear regression with graphpad prism 7.0 software (GraphPad Software, Inc., La Jolla, CA).
On to `CC1(C)CC[C@]2(C(=O)O)CC[C@]3(C)C(=CC[C@@H]4[C@@]5(C)C[C@@H](O)[C@H](O)C(C)(C)[C@@H]5CC[C@]43C)[C@@H]2C1` [Compound 2, maslinic acid], for which it took 0.12 ± 0.01 µM to reach half-maximal inhibition (IC50).
Same read-out and setting: the result for `C[C@H]1[C@H](C)CC[C@]2(C(=O)O)CC[C@]3(C)C(=CC[C@@H]4[C@@]5(C)C[C@@H](O)[C@H](O)C(C)(C)[C@@H]5CC[C@]43C)[C@H]12` [Compound 6, corosolic acid] reads 0.34 ± 0.04 µM.

Still in this test, the particulars now being: NLMe substrate, HLM, mean ± SD (n = 3); read-out: IC50 (µM) hCES1A.
Turning to `CC1(C)CC[C@]2(C(=O)O)CC[C@]3(C)C(=CC[C@@H]4[C@@]5(C)CC[C@H](O)C(C)(C)[C@@H]5CC[C@]43C)[C@@H]2C1` [Compound 1, oleanolic acid], the IC50 amounted to 0.04 ± 0.003 µM.
For the compound `C[C@H]1[C@H](C)CC[C@]2(C(=O)O)CC[C@]3(C)C(=CC[C@@H]4[C@@]5(C)CC[C@H](O)C(C)(C)[C@@H]5CC[C@]43C)[C@H]12` [Compound 5, ursolic acid], the IC50 was determined as 0.04 ± 0.004 µM.
Regarding `CCCCCCCCCCC[C@@H](C[C@@H]1OC(=O)[C@H]1CCCCCC)OC(=O)[C@H](CC(C)C)NC=O` [Compound 28, Orlistat, reference compound], the IC50 turned out to be 0.035 ± 0.003 µM.
